Assay [1] has as its target T1, AgifOBP7 (Aphidius gifuensis, UniProt A0A3S9LWE5). Kind of assay: Fluorescence competitive binding assay (1-NPN displacement) with recombinant AgifOBP7. As to conditions: for binding to AgifOBP7 in words: fluorescence competitive binding assay. The procedure: (§1) Fluorescence intensity was recorded in a right angle configuration on a Lengguang 970CRT spectrofluorimeter (Shanghai Jingmi, China) at room temperature using a 1 cm light path fluorimeter quartz cuvette. A slit width of 10 nm was selected for both excitation and emission. The measured fluorescence intensities were corrected for both blank signals due to protein emission and scattered excitation light. The spectral data were processed using the software 970CRT 2.0l. Fluorescence binding experiments were conducted in […] Tris-HCl buffer, pH 7.4, at room temperature. The binding affinity for N-phenyl-1-naphthylamine (1-NPN) was determined by adding aliquots of a 1 mM stock solution of 1-NPN dissolved in spectrophotometric grade methanol into a 2 μM protein sample. The fluorescence of 1-NPN was excited at 337 nm, and emission was recorded between 350 and 500 nm. Spectra were recorded with a high-speed scan. All ligands used in competitive experiments were dissolved in spectrophotometric grade methanol. In competition assays, aliquots of the competing ligands were added into a 2 μM protein solution in the presence of a given concentration of 1-NPN. To estimate the binding affinities of each AgifOBP for a variety of different ligands, we monitored the decrease in 1-NPN fluorescence due to the ability of different odorants to displace 1-NPN and determined the Ki value for each compound. To determine the dissociation constants, the intensity values corresponding to the maximum fluorescence emissions were plotted against the cumulative 1-NPN concentration. The amount of bound ligand was calculated from the fluorescence intensity values by assuming that the protein was 100% active, with a stoichiometry of 1:1 protein: ligand at saturation. The curves were linearized using Scatchard plots. The value of K1-NPN was estimated on a direct plot by nonlinear regression with an equation corresponding to a single binding site using Prism 7 (GraphPad Software, Inc., United States), and the IC50 was defined as the concentration of a competitor that caused a 50% reduction in fluorescence intensity. The dissociation constants of the inhibitors (Ki) were calculated according to the formula Ki = [IC50]/(1+[1-NPN]/K1-NPN), in which [1-NPN] represents the free 1-NPN concentration and K1-NPN represents the dissociation constant for AgifOBPs/1-NPN ([Ban et al., 2003]; [Zhong et al., 2012]; [Sun et al., 2016]; [Fan et al., 2017]; [Qin et al., 2020]; [Wang et al., 2021b]). All fluorescence competitive binding assays were performed in three independent replicates, and Ki dates are present as means ± SD.
(§2) FIGURE 5 Expression and binding properties of AgifOBP7 and AgifOBP9 with candidate ligands. (A) Expression and purification of AgifOBP7, (B) Expression and purification of AgifOBP9. Line M: molecular weight PR 1910 (11–180 KDa) Marker, 11, 17, 25, 35, 48, 63, 75, 100, 135, 180 KDa; IN: Induced pET-28a (+)/AgifOBP7/9; Super: pET-28a (+)/AgifOBP7/9 Supernatant; IB: pET-28a (+)/AgifOBP7/9 Inclusion body; Pur: Purified pET-28a (+)/AgifOBP7/9 without His-tag. (C,D) Binding curves of AgifOBP7 and AgifOBP9 with N-phenyl-1-naphthylamine (1-NPN) in 50 mM Tris-HCl buffer (pH 7.4). (E,F) Competitive binding curves of AgifOBP7 and AgifOBP9 to components of aphid alarm pheromones ((E)-beta-farnesene, (-)-α-pinene, (-)-β-pinene, (+)-limonene, (E)-beta-farnesene derivative (CAU-II-11); aphid sexual pheromone (4aSR 7SR 7aRS)-nepetalactone, the volatiles of wheat green leaf (cis-3-hexen-1-ol) and aphid induced plant main volatiles (methyl salicylate, 6-methyl-5-hepten-2-one). A mixture of the recombinant protein and N-phenyl-1-naphthylamine (1-NPN) in 50 mM Tris-HCl buffer (pH 7.4) at the concentration of 2 μM was titrated with 1 mM solutions of each competing ligand to a final concentration range of 2–16 μM. Fluorescence values are presented as percent of the values in the absence of competitor. Date are the means ± SD of three independent experiments.

Assay [2] addresses T2, AgifOBP9 (Aphidius gifuensis, UniProt A0A3Q9EL79, L121S). The experiment in a line: Fluorescence competitive binding assay (1-NPN displacement) with recombinant AgifOBP9. To be noted: for Ki: Tris-HCl pH 7.4, Ki = [IC50]/(1+[1-NPN]/K1-NPN), means ± SD, three replicates. Here is the method:
as §1, §2

Assay [3] has as its target T1, AgifOBP7. Kind of assay: Binding of fluorescent probe 1-NPN to AgifOBP7. To be noted: 2 μM protein, 50 mM Tris-HCl pH 7.4; read-out: dissociation constant of AgifOBP7/1-NPN complex. Here is the method: (§3) Fluorescence intensity was recorded in a right angle configuration on a Lengguang 970CRT spectrofluorimeter (Shanghai Jingmi, China) at room temperature using a 1 cm light path fluorimeter quartz cuvette. A slit width of 10 nm was selected for both excitation and emission. The measured fluorescence intensities were corrected for both blank signals due to protein emission and scattered excitation light. The spectral data were processed using the software 970CRT 2.0l. Fluorescence binding experiments were conducted in […] Tris-HCl buffer, pH 7.4, at room temperature. […] The fluorescence of 1-NPN was excited at 337 nm, and emission was recorded between 350 and 500 nm. Spectra were recorded with a high-speed scan. […] To estimate the binding affinities of each AgifOBP for a variety of different ligands, we monitored the decrease in 1-NPN fluorescence due to the ability of different odorants to displace 1-NPN and determined the Ki value for each compound. To determine the dissociation constants, the intensity values corresponding to the maximum fluorescence emissions were plotted against the cumulative 1-NPN concentration. The amount of bound ligand was calculated from the fluorescence intensity values by assuming that the protein was 100% active, with a stoichiometry of 1:1 protein: ligand at saturation. […]

The target of assay [4] is T2, AgifOBP9. Kind of assay: Binding of fluorescent probe 1-NPN to AgifOBP9. To be noted: 2 μM protein, 50 mM Tris-HCl pH 7.4; read-out: dissociation constant of AgifOBP9/1-NPN complex. Here is the method:
as §3

Setting [5] is: displacement of 1-NPN, 2 μM protein, Tris-HCl pH 7.4, room temperature, read-out: OBP7 IC50.
Where [6] appears, read: displacement of 1-NPN, 2 μM protein, Tris-HCl pH 7.4, Ki = [IC50]/(1+[1-NPN]/K1-NPN), means ± SD, three replicates, read-out: OBP7 Ki.
[7] abbreviates: displacement of 1-NPN, 2 μM protein, Tris-HCl pH 7.4, room temperature, read-out: OBP9 IC50.
[8] abbreviates: displacement of 1-NPN, 2 μM protein, read-out: OBP9 Ki.
Where [9] appears, read: OBP9 Ki, displacement of 1-NPN, 2 μM protein.

SMILES strings stand for the structures. Several values for one entry are separate records, joined by “and”; a condition that tells them apart may be missing. Equal entries are not always repeated. Where two headings read alike, the source gives them in different places.

The results in this text go back to PMC9115719, “Spatial Expression Analysis of Odorant Binding Proteins in Both Sexes of the Aphid Parasitoid Aphidius gifuensis and Their Ligand Binding Properties” (Frontiers in Physiology, 2022).

For orientation: IC50 means the midpoint of a concentration-inhibition curve. For orientation: Ki means a measure of affinity in units of concentration, obtained from inhibition or displacement.

T2 sequence (A0A3Q9EL79 entry or part of it L121S): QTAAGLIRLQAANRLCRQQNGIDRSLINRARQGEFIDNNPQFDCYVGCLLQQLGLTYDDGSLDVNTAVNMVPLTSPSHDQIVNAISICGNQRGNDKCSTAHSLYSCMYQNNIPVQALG
T1 sequence (A0A3S9LWE5 entry or part of it): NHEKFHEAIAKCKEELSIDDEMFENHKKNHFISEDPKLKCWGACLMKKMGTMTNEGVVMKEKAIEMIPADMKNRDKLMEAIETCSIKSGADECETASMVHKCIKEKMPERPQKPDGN

As for `C=C(C)C1CC=C(C)CC1` (single isomer, unassigned; (+)) [(+)-Limonene], the IC50 on AgifOBP7 [1] (setting [5]) was over 30 µM; at AgifOBP9 [2] (setting [7]) it was 12.8 ± 0.25 µM. Moreover, the Ki at AgifOBP7 [1] (setting [6]) was over 30 µM; on AgifOBP9 [2] (displacement of 1-NPN, 2 μM protein, listed as (+)-limonene, read-out: OBP9 Ki) it was under 10 µM; at AgifOBP9 [2] (setting [8]), 3.32 ± 0.06 µM. At AgifOBP7 [1], the “binding to AgifOBP7 in words” value is given as “not much”.
On to `c1ccc(Nc2cccc3ccccc23)cc1` [1-NPN, N-phenyl-1-naphthylamine], for which the values for the Kd at AgifOBP7 [3] and at AgifOBP9 [4] were 1.69 ± 0.27 µM and 0.69 ± 0.24 µM, respectively.
As for `CC(=O)CCC=C(C)C` [6-Methyl-5-hepten-2-one], the IC50 on AgifOBP7 [1] is over 30 µM; on AgifOBP9 [2] it was 22.3 ± 3.38 µM. In addition, the Ki on AgifOBP7 [1] is over 30 µM; on AgifOBP9 [2] (setting [9]), < 10 µM and 5.76 µM. The “binding to AgifOBP7 in words” value at AgifOBP7 [1] is given as “not much”.
Turning to `CC1=COC(=O)[C@H]2[C@@H]1CC[C@@H]2C` [(4aSR 7SR 7aRS)-Nepetalactone], the IC50 at AgifOBP7 [1] (setting [5]) was over 30 µM; at AgifOBP9 [2] (setting [7]), 9.03 ± 0.31 µM. The Ki on AgifOBP7 [1] (setting [6]) was 16.1 ± 3.49 µM; on AgifOBP9 [2] (displacement of 1-NPN, 2 μM protein, listed as (4aSR 7SR 7aRS)-nepetalactone, read-out: OBP9 Ki), under 10 µM; at AgifOBP9 [2] (setting [8]), 2.33 ± 0.08 µM.
With `CC1=CCC2CC1C2(C)C` (stereo not drawn) [(-)-α-Pinene], the IC50 on AgifOBP7 [1] (setting [5]) was over 30 µM; at AgifOBP9 [2] (setting [7]) it was 24.1 ± 3.42 µM. Moreover, the Ki at AgifOBP7 [1] (setting [6]) was over 30 µM; on AgifOBP9 [2] (displacement of 1-NPN, 2 μM protein, listed as (-)-α-pinene, read-out: OBP9 Ki), under 10 µM; at AgifOBP9 [2] (setting [8]) it was 6.22 ± 0.88 µM. For the same compound, the “binding to AgifOBP7 in words” value on AgifOBP7 [1] is given as “not much”.
`C=C1CCC2CC1C2(C)C` (stereo not drawn) [(-)-β-Pinene]: the IC50 at AgifOBP7 [1] (setting [5]) is over 30 µM; on AgifOBP9 [2] (setting [7]) it was 11.9 ± 1.27 µM. Further, the Ki at AgifOBP7 [1] (setting [6]) is over 30 µM; on AgifOBP9 [2] (displacement of 1-NPN, 2 μM protein, listed as (-)-β-pinene, read-out: OBP9 Ki) it was under 10 µM; at AgifOBP9 [2] (setting [8]) it was 3.06 ± 0.33 µM. For the same compound, on AgifOBP7 [1], the “binding to AgifOBP7 in words” value is “not much”.
On to `C=CC(=C)CC/C=C(\C)CCC=C(C)C` [(E)-β-Farnesene], for which the IC50 is over 30 µM on AgifOBP7 [1] (setting [5]) and 17.8 ± 1.69 µM at AgifOBP9 [2] (setting [7]). Besides, the Ki was 20.3 ± 1.99 µM on AgifOBP7 [1] (setting [6]); under 10 µM on AgifOBP9 [2] (displacement of 1-NPN, 2 μM protein, listed as EBF, read-out: OBP9 Ki); 4.6 ± 0.43 µM at AgifOBP9 [2] (setting [8]).
For `COc1cccc(C(=O)OC/C=C(\C)CCC=C(C)C)c1O` [CAU-II-11, (E)-3,7-dimethylocta-2,6-dien-1-yl-2-hydroxy-3-methoxybenzoate], the IC50 on AgifOBP7 [1] was found to be 18.6 ± 1.73 µM; on AgifOBP9 [2], 4.15 ± 0.33 µM. For the same compound, the figures for the Ki on AgifOBP7 [1] and on AgifOBP9 [2] (setting [9]) were 8.5 ± 0.73 µM and 1.07 ± 0.08 µM, respectively.
Take `COC(=O)c1ccccc1O` [Methyl salicylate]: the IC50 at AgifOBP7 [1] was over 30 µM; on AgifOBP9 [2], 13.3 ± 2.99 µM. For the same compound, the Ki at AgifOBP7 [1] was over 30 µM; on AgifOBP9 [2] (setting [9]) it was < 10 µM and 3.43 µM. Also, the “binding to AgifOBP7 in words” value at AgifOBP7 [1] is “not much”.
Turning to `CC/C=C\CCO` [cis-3-Hexenol], at AgifOBP7 [1], the IC50 was over 30 µM, the Ki is over 30 µM and the “binding to AgifOBP7 in words” value is “not much”. The IC50 at AgifOBP9 [2] was 17 ± 0.33 µM. For the same compound, at AgifOBP9 [2] (setting [9]), the Ki was < 10 µM and 4.39 µM.
